According to US7241724B2, “Personal care compositions comprising alkyl phosphate surfactants and selected auxiliary surfactants” (priority 2005, dated 2007):

Test system: Zein protein
Experiment: Zein solubilization test (mildness)
Protocol: • 1. Prepare a 5 wt. % aqueous solution of the surfactant. If the natural pH of the system differs from that desired, adjust by incremental addition of acid or base. • 2. Mix 4 grams of Zein protein in 40 grams of the surfactant solution. Allow the mixture to stand at room temperature for 24 hours with frequent vigorous shaking. • 3. Filter the supernatant of the Zein/surfactant mixture using a syringe filter with a 0.45 micron Nylon membrane. Dilute the filtered solution 100-fold with 2% SDS solution (i.e., 0.1 gram filtered solution diluted in 10 grams of 2% SDS solution). As a reference, also prepare a diluted surfactant solution by mixing 0.1 grams of 5 wt. % surfactant solution with 10 grams of 2% SDS solution. • 4. The Zein concentration is determined using a UV/VIS spectrophotometer operated in the range 200-350 nm at a scanning rate of 800 nm/min, using a 2% SDS solution as the background. […] The Zein solubility in the 5 wt. % surfactant solution is C, times the dilution factor.
[…] Zein and surfactant were contacted for 24 hours.
Zein tests reported in Table V were all conducted at 45° C. rather than at room temperature.

## Sodium lauryl ether sulfate [SLES]
Table I, pH 6.0, 5% total surfactant solutions, Zein and surfactant contacted 24 hours
  Percent Zein Solubilized: 4.64%
Table II, comparators at pH 6.0
  Percent Zein Solubilized: 4.11%
Table IV, C12 MAP blended with other carboxylic acids, pH 5.0
  Percent Zein Solubilized: 3.52%
Table V, C12 MAP blended with fatty alcohols, pH 5.0, conducted at 45° C.
  Percent Zein Solubilized: 3.52%
Table VI, negative controls, strong acid auxiliary agents, pH 5.0
  Percent Zein Solubilized: 3.52%
Table VII, C12 MAP acid 60/40 weight ratio with auxiliary, combined 5% in water, amino acid counterion to pH 5, listed as 42
  Percent Zein Solubilized: 3.55%
Table VII, C12 MAP acid 60/40 weight ratio with auxiliary, combined 5% in water, amino acid counterion to pH 5, listed as 46
  Percent Zein Solubilized: 3.42%
